The source of these data is a melting point compilation (Tetko et al.; mined from patent text by program, amines drawn as free bases though some values may be those of a salt).

Take `CC(C)C(=O)Oc1ccc2c(c1)-c1ncc(C(=O)O)c(=O)n1CC2`: the melting point fell in the range of 183 to 185 °C.

Consider `CCCCn1c(NNC(=S)NC(C)=O)cc(=O)n(CCC)c1=O`, for which the melting point lay in the range of 149 to 152 °C.

For the compound `CC1(C)c2c(ccc3cc(C(N)=O)c(Cn4cncn4)cc23)OC1O` (stereo not drawn), the melting point is 223 to 225 °C.

As for `O=C(CC1CCCC1=O)c1ccc(Br)cc1` (stereo not drawn), the melting point was 59 to 61 °C.

The compound `O=S1(=O)CCN2CCCC(c3ccc(Oc4ccc(Cl)cc4)cc3)C2=N1` (stereo not drawn) showed a melting point of 215 to 216 °C.

For the compound `COc1cc2c(cc1Nc1ncc(Cl)c(Nc3ccccc3S(=O)(=O)N3CCCC3)n1)NC(=O)CN(CC1CC1)C2`, the melting point is 142 °C.

For `CC(=O)NC(C)Cc1ccccc1` (stereo not drawn), the melting point was 91 to 93 °C.

In the case of `O=c1c(Cc2ccncc2)c(-c2ccc(Cl)cc2)[nH]c2c(Br)cc(Br)cc12`, the melting point fell in the range of 198 to 200 °C.

Compound `CCCCCCCCNC(=O)N1CCC(S(=O)(=O)c2ccc(CCNC[C@H](O)COc3ccc4c(c3)OCO4)cc2)CC1` yielded a melting point of 84 to 86 °C.

The compound `N#Cc1c(N2CCN(C(=O)c3cccs3)CC2)c2cccnc2n(Cc2ccccc2)c1=O` showed a melting point of 263 °C.

Take `Nc1ccnc(CCCCN2C(=O)c3ccccc3C2=O)n1`: the melting point lay in the range of 139 to 140 °C.

The compound `CCCc1c(OCc2c(C)ccn3c(=O)c(CC(=O)O)cnc23)ccc(C(C)=O)c1O` returned a melting point of 191 to 193 °C.

With `CCCCCCCCCCCCCCCCCc1cc(=O)[nH]c(NC(=N)Nc2ccccc2)n1`, the melting point worked out at 164 °C.

`[N-]=[N+]=NS(=O)(=O)c1cccc(C(=O)O)c1` returned a melting point of 122 to 127 °C.

`COc1ccc(-c2cc(=O)n(CCN3CCOCC3)nc2-c2ccc(OC)cc2)cc1` displayed a melting point of 145 to 146 °C.

On to `c1ccc2c(c1)c1ccccc1n2-c1ccc2c(c1)Sc1ccc(-n3c4ccccc4c4ccccc43)cc1S2`, for which the melting point was 350 °C.

`CN1Cc2c(-c3noc(CCl)n3)ncn2-c2ccccc2C1=O` yielded a melting point of 208 to 209 °C.

With `O=C(O)C1=Cc2ccc(C(F)(F)F)cc2Oc2ccccc21`, the melting point is 180 °C.

`COc1cccc(C=CCC(=O)O)c1OC` yielded a melting point of 84 to 86 °C.

The compound `O=C(N[C@H]1CC[C@H](CCN2CCN(c3nccc4c3OCC4)CC2)CC1)c1ccc2c(c1)OCO2` yielded a melting point of 214 °C.

Regarding `CN1CCN(c2cc3c(Br)cccc3c(=O)[nH]2)CC1CO` (stereo not drawn), the melting point lay within 200 to 202 °C.

Take `CCOc1ccc(CCCc2ccncc2)cc1`: the melting point lay in the range of 79 to 81 °C.

For the compound `FC(F)(F)c1cccc(C=Cc2ccccc2)c1`, the melting point is 127 to 129 °C.

With `Cc1c(-c2ccc(Cl)c(C(=O)N(C)C)c2)sc2nc(N)[nH]c(=O)c12`, the melting point was in the range of 300 to 320 °C.

`CS(=O)(=O)Nc1cccc(C=C2SC(=S)NC2=O)c1`: the melting point lay in the range of 260 to 265 °C.

In the case of `OC(CCSC(=S)Nc1ccc(Cl)cn1)c1ccc(F)cc1` (stereo not drawn), the melting point turned out to be 86 °C.

For the compound `COc1ccc(-c2ccc(C=NO)o2)cc1OC`, the melting point was in the range of 140 to 142 °C.

The compound `CC(=O)c1ccc2c(c1)Sc1cc(C(C)=O)c(Cl)cc1N2C` registered a melting point of 185 °C.

Regarding `COc1ccc(-c2nc(N)ncc2-c2ccc(=O)n(C)n2)cc1F`, the melting point was determined as 245 °C.

Compound `COC(=O)c1cc(S(=O)(=O)Cl)cc(C(=O)OC)c1[N+](=O)[O-]` gave a melting point of 124 to 125 °C.

Compound `CCOC(=O)c1cnc(Nc2cc(OC)ccc2OC)[nH]c1=O` yielded a melting point of 221 to 223 °C.

Take `COC(=O)C1=C(C)NC(C)=C(C(=O)OCC(C)=O)C1c1cccc([N+](=O)[O-])c1` (stereo not drawn): the melting point amounted to 139 °C.

In the case of `O=C(c1ccccc1)C1OC1c1ccccc1` (stereo not drawn), the melting point is 90 °C.

In the case of `N#Cc1nc(Cl)nc(N2CCS(=O)(=O)CC2)c1Cl`, the melting point fell in the range of 198 to 199 °C.

On to `Cn1c(CCCCN2CCN(c3cc(C(C)(C)C)nc(C(C)(C)C)n3)CC2)nnc1-c1ccccc1`, for which the melting point was 144 to 145 °C.

For `CC(O)C#Cc1cc(F)c2ncc(C(=O)NCc3ccc(Cl)cc3)c(O)c2c1` (stereo not drawn), the melting point lay within 232 to 234 °C.

`CC(=O)N1c2ccccc2N(Cc2ccccc2)C(=O)[C@H]2CCC[C@H]21` (relative stereo): the melting point lay in the range of 209 to 210 °C.

In the case of `Brc1ccc(-c2ccc(C=CC3COC4(CCCCC4)OO3)cc2)cc1` (stereo not drawn), the melting point lay in the range of 118 to 120 °C.

The compound `O=C(Cc1ccc(CC(=O)Oc2cc(O)cc(O)c2)cc1)Oc1cc(O)cc(O)c1` yielded a melting point of 220 to 225 °C.

Compound `CCCCc1nc2cccc(C(=O)OC)c2n1Cc1ccc(-n2c(C)ccc2C#N)cc1` had a melting point of 131 to 132 °C.

In turn, `CC(=O)Oc1ccc([C@H]2[C@H](c3ccccc3)C2(Cl)Cl)cc1` (relative stereo) gave a melting point of 124 to 126 °C.

`CCC(C(C)=CC(CNC(=O)c1cccnc1)=NO)[N+](=O)[O-]` (stereo not drawn) gave a melting point of 105 to 108 °C.

`CNC(=O)c1cc2c(nc(C)n2C)c(O)c1CCC(=O)c1ccccc1` returned a melting point of 284 to 285 °C.

The compound `CCc1nn(C)c(N)c1Cl` yielded a melting point of 50 to 51 °C.

`Cc1ccc(-c2nc3cccnc3n2CC(=O)N(C)C)s1` displayed a melting point of 193 to 197 °C.

As for `CC(=O)NC12CC3CC(C)(CC(C)(C3)C1)C2`, the melting point is 113 to 114 °C.

Compound `FC(F)(F)c1cc(C(F)(F)F)c2[nH]c(N3CCN(c4ncccc4Br)CC3)nc2c1` came in with a melting point of 166 °C.

In the case of `CCCc1nc2cc(C(=O)c3ccccc3)ccc2n1Cc1ccc(Cl)c(Cl)c1`, the melting point was in the range of 168 to 169 °C.

For `NC(=O)c1c(-c2cccc(F)c2)c(Br)n2c1CNCC2`, the melting point was 216 to 218 °C.

Compound `O=C(O)c1cc(CO[N+](=O)[O-])cc(CO[N+](=O)[O-])c1` had a melting point of 39 to 41 °C.

`N#CSCCNc1ccc([N+](=O)[O-])cc1Cl` yielded a melting point of 148 to 150 °C.

On to `CCc1nn(-c2ccc(F)cc2)c2cc(C(=O)Nc3c(Cl)cncc3Cl)ccc12`, for which the melting point lay in the range of 197 to 199 °C.

As for `CCOC(=O)N(CC(=O)O)C(=O)c1c(F)ccc2c(C(F)(F)F)c(OC)ccc12`, the melting point fell in the range of 136 to 138 °C.

In the case of `Cn1cncc1C(O)(c1ccc(I)cc1)c1ccc2c(c1)c(-c1cccc(Cl)c1)cc(=O)n2C` (stereo not drawn), the melting point was determined as 197 °C.

`CC(C)(O)COC1CCNCC1` displayed a melting point of 80 to 82 °C.

Consider `CCCc1ccc(OC)c2c(C)c(C(=O)OCC)oc12`, for which the melting point lay in the range of 43 to 46 °C.

Take `CN1CCC(OC2c3ccccc3CCn3c2nc(-c2ccccc2)c3C(N)=O)CC1` (stereo not drawn): the melting point was determined as 102 °C.

Regarding `CCCCCCCCCCCCCCCCCCOc1cccc(CC(=O)N(CC(=O)OC)CC(=O)OC)c1`, the melting point was in the range of 52 to 55 °C.

In turn, `Cn1cc(C2=C(c3c4n(c5ccccc35)CCCC4)C(=O)OC2=O)c2ccccc21` returned a melting point of 276 to 278 °C.

`CS(=O)(=O)Nc1cccc(Nc2nc(NCc3cccc(O)c3)c3nc[nH]c3n2)c1` came in with a melting point of 221 to 225 °C.

As to `CCCc1cccc(C2CCCC2)c1`, the melting point stood at 90 °C.

On to `CC(=O)N1CCN(Cc2ccc(-c3cc4ncnc(Nc5ccc6[nH]ccc6c5)c4s3)cc2)CC1`, for which the melting point lay in the range of 163 to 180 °C.

The compound `NS(=O)(=O)c1ccc(NN=C2C(=O)Nc3cc(Br)ccc32)cc1` yielded a melting point above 250 °C.

In the case of `O=c1c2ccccc2nc(-c2sc(Nc3ccccc3)nc2-c2ccccc2)n1-c1ccccc1`, the melting point was in the range of 181 to 182 °C.

For `O=C1c2cc(OCc3ccccn3)ccc2CC1Cc1ccccc1` (stereo not drawn), the melting point is 94 to 97 °C.

As to `NOCc1cn(C(c2ccccc2)(c2ccccc2)c2ccccc2)nn1`, the melting point lay within 144 to 145 °C.

`NC(=O)c1c(Cl)c(-c2ccccc2)n2c1CN(S(=O)(=O)c1ccncc1)CC2` gave a melting point of 202 to 204 °C.

Compound `COc1ccccc1-c1nc2ccc(C(=O)O)cc2c(=O)[nH]1` gave a melting point of 295 to 297 °C.

Regarding `CCc1cc(C(C)C)c(-c2ccc(O)cc2)cc1C`, the melting point was 106 to 108 °C.

In turn, `O=C1Cc2ccc(-c3ccccc3)cc2O1` returned a melting point of 109 to 110 °C.

For `C[C@@H]1CCCN1CCc1ccc2cc(-c3ccc(=O)[nH]n3)ccc2c1`, the melting point is 295 to 298 °C.

On to `CCOC(=O)Nc1cc(F)cc(CCCCC(=O)OC)c1`, for which the melting point is 61 to 62 °C.

For `O=C(Nc1ccc(-n2nc(C(F)(F)F)cc2C(F)(F)F)cc1)c1cccc(F)c1F`, the melting point fell in the range of 147 to 149 °C.

Take `CCCCCCCCC1CNc2cc(C(=O)OC)ccc21` (racemic): the melting point was 57 to 60 °C.

The compound `CNC(=O)N1CC(=O)Nc2ccc([N+](=O)[O-])cc2C1c1ccccc1` (stereo not drawn) showed a melting point of 176 to 180 °C.

In the case of `N#Cc1nn(-c2c(Cl)cc(C(F)(F)F)cc2Cl)c(N)c1-c1ccoc1S(=O)C(F)(F)F` (stereo not drawn), the melting point lay within 141 to 142 °C.

Compound `NC(Cc1cccc2c(Cl)cccc12)=NO` had a melting point of 121 to 125 °C.

Compound `Nc1cccc(Cc2nnn[nH]2)c1` yielded a melting point of 140 °C.

Compound `Fc1cccc2c(OCCc3ccc(Oc4ccc(C(F)(F)F)cn4)cc3)ncnc12` gave a melting point of 116 to 118 °C.

`CCS(=O)(=O)Nc1cc(C)cc(Cc2c[nH]cn2)c1C` came in with a melting point of 167 to 169 °C.

The compound `Cc1cc(N=CN(C)C)nc(-c2ccc([N+](=O)[O-])o2)n1` gave a melting point of 176 to 178 °C.

`CCOc1nn(Cc2cc(OCc3ccc4ccccc4n3)no2)cc1CCC(=O)O` came in with a melting point of 123 to 124 °C.

Regarding `NC(=O)N1C(=O)C(=C(OC(=O)c2ccncc2)c2cccs2)c2cc(F)c(Cl)cc21`, the melting point was in the range of 220 to 221 °C.

Regarding `N#Cc1ccc2c(c1)[C@@H](OC1=CC(=O)CC1)[C@H](O)C(CF)(CF)O2` (relative stereo), the melting point lay in the range of 200 to 201 °C.

For the compound `Cc1c(C(=O)Nc2ccc(OCC(C)(C)C)c(C#N)c2)cnn1-c1ccc(F)cc1`, the melting point lay in the range of 126 to 127 °C.

The compound `CON=C(Cl)c1ccccc1OCc1ccc(Cl)cc1Cl` displayed a melting point of 91 to 92 °C.

`CNC(=O)c1ccc(N2CCN(Cc3cnc4c(c3)[nH]c(=O)n3cccc43)CC2)c(F)c1` showed a melting point of 288 to 294 °C.

`CCOc1nc(NCc2ccco2)nc(Nc2ccc3[nH]c(C(F)(F)F)nc3c2)n1` showed a melting point of 188 to 190 °C.
